Assay results: ChEMBL document CHEMBL5137099, “Discovery of Novel cccDNA Reducers toward the Cure of Hepatitis B Virus Infection” (J Med Chem, 2022)
Converted amounts (≈) assume the structure as drawn. The source made the active and inactive calls. No cut-off for these calls is given here.

Assays:
[1] = Aqueous solubility of the compound; format: physicochemical; conditions: buffer
Hepatitis B virus [2] = assay: Antiviral activity against HBV infected in human HepG2 cells assessed as reduction in HBeAg secretion incubated for 5 days by counter screen assay; format: functional, organism-based; conditions: HepG2, 120 h
[3] = Therapeutic index, ratio of CC50 for cytotoxicity against human HepDES19 cells assessed as reduction in cell viability measured after 5 days by CCK-8 assay to IC50 for antiviral activity against HBV infected in human HepDES19 cells assessed as reduction in HBV cccDNA production by measuring inhibition of HBeAg secretion incubated for 5 days by ELISA; format: toxicity, cell-based; conditions: time 5 day, read-out: Ratio CC50/IC50
[4] = Cytotoxicity against human HepDES19 cells assessed as reduction in cell viability measured after 5 days by CCK-8 assay; format: toxicity, cell-based; conditions: time 5 day
Hepatitis B virus [5] = assay: Antiviral activity against HBV infected in human HepDES19 cells assessed as reduction in HBV cccDNA production by measuring inhibition of HBeAg secretion incubated for 5 days by ELISA; format: functional, organism-based; conditions: HepDES19, 120 h
Hepatitis B virus [6] = assay: Antiviral activity against HBV infected in human primary hepatocyte cells assessed as reduction in HBV cccDNA production by measuring inhibition of HBsAg secretion measured after 48 hrs by ELISA; format: functional, organism-based
[7] = Permeability of the compound by PAMPA analysis; format: ADME; conditions: read-out: permeability
[8] = Octanol-aqueous buffer distribution coefficient, log D of the compound at pH 7.4 by CAMDIS assay; format: physicochemical
[9] = Metabolic stability in mouse hepatocytes assessed as intrinsic clearance; format: ADME, cell-based, Hepatocyte; conditions: read-out: CLH
[10] = Metabolic stability in human microsomes assessed as clearance; format: ADME, Microsome; conditions: read-out: CLH
Hepatitis B virus [11] = assay: Antiviral activity against HBV infected in human HepDES19 cells assessed as reduction in HBV cccDNA production by measuring inhibition of HBeAg secretion at 0.3 to 10 uM by southern blot analysis; format: functional, organism-based; conditions: dose 0.3-10 µM

Structure (SMILES)	solubility [1] [µg/mL]	IC50 (Hepatitis B virus [2]) [µM]	selectivity ratio at 120 h [3]	CC50 at 120 h [4] [µM]	IC50 (Hepatitis B virus [5]) [µM]	IC50 (Hepatitis B virus [6]) [µM]	Papp [7] [×10⁻⁶ cm/s]	logD [8]	CLint scaled [9] [mL/min/kg]	CLint scaled [10] [mL/min/kg]	Activity (Hepatitis B virus [11])
O=C(Nc1ccc2c(=O)c3cccc(F)c3oc2c1)c1ccncc1	< 1	> 50	> 134	> 100	1.14						
O=C(Nc1ccc2c(=O)c3cccc(F)c3oc2c1)c1ccccc1O	< 1	> 50	5	35.1	6.79						
O=C(O)[C@H]1CCN(c2ccc3c(=O)c4cccc(Cl)c4oc3c2)C1	> 430	> 50			1.92	1.58	3.02	1.09			
O=C(Nc1ccc2c(=O)c3cccc(Cl)c3oc2c1)c1ccccc1[N+](=O)[O-]	< 1	> 50	> 9	> 100	10.9						
O=C(Nc1ccc2c(=O)c3cccc(F)c3oc2c1)c1ccccc1Cl	< 1	> 50	> 38	> 100	2.62						
CCOc1ccc(Cl)c2oc3cc(N4CCC(C(=O)O)C4)ccc3c(=O)c12 (stereo not given)	330 (≈ 851 µM)	> 50			2.86		0.7	0.93			
Cn1ccnc1C(=O)Nc1ccc2c(=O)c3cccc(F)c3oc2c1		> 50	> 102	> 50	0.49						
O=C(O)C1CCN(c2ccc3c(=O)c4c(F)ccc(Cl)c4oc3c2)C1 (stereo not given)	14 (≈ 38.7 µM)	> 50			1.46	8.48	1.83	< -0.5	38.4		
O=C(O)C1(C(F)(F)F)CCN(c2ccc3c(=O)c4cccc(Cl)c4oc3c2)C1 (stereo not given)	> 510	> 50			27		1.78	1.26			
O=C(O)C1CCN(c2ccc3c(=O)c4c(Cl)ccc(Cl)c4oc3c2)C1 (single isomer, unassigned)	29 (≈ 76.7 µM)	> 50			0.65	2.61	1.19	1.42	20.3		
N#Cc1cc2c(=O)c3cccc(Cl)c3oc2cc1N1CCC(C(=O)O)C1 (stereo not given)	> 430	> 50			8.23			< -0.5			
N#Cc1ccc(Cl)c2oc3cc(N4CCC(C(=O)O)C4)ccc3c(=O)c12 (stereo not given)	> 443	> 50			1.1	12.4	0.8				
O=C(O)C1CCN(c2ccc3c(=O)c4c(O)ccc(Cl)c4oc3c2)C1 (stereo not given)	200 (≈ 556 µM)	> 50			1.74		0.53	1.71			
NC1CCN(c2ccc3c(=O)c4cccc(F)c4oc3c2)C1 (stereo not given)	23 (≈ 77.1 µM)	> 50			4.85		0.79			6.7	
O=C(O)C1CCN(c2ccc3c(=O)c4c(C(F)(F)F)ccc(Cl)c4oc3c2)C1 (stereo not given)	100 (≈ 243 µM)	> 50			0.25	1.21	1.18	1.42	11.9		
CC(=O)Nc1ccc2c(=O)c3cccc(F)c3oc2c1	< 1	> 50			6.21		8.5			19.7	
O=c1c2ccc(N3CCCCC3)cc2oc2c(Cl)cccc12	< 1	> 50			0.98		0.49			20.2	

Structure (SMILES)	solubility [1] [µg/mL]	IC50 (Hepatitis B virus [2]) [µM]	selectivity ratio at 120 h [3]	CC50 at 120 h [4] [µM]	IC50 (Hepatitis B virus [5]) [µM]	IC50 (Hepatitis B virus [6]) [µM]	Papp [7] [×10⁻⁶ cm/s]	logD [8]	CLint scaled [9] [mL/min/kg]	CLint scaled [10] [mL/min/kg]	Activity (Hepatitis B virus [11])
O=c1c2ccc(N3CCC(O)C3)cc2oc2c(F)cccc12 (stereo not given)	< 1	> 50			0.43		1.49			17.5	
Cc1ccc(Cl)c2oc3cc(N4CCC(C(=O)O)C4)ccc3c(=O)c12 (stereo not given)	252 (≈ 704 µM)	> 50			1.12		0.59	1.75			
O=C(Nc1ccc2c(=O)c3cccc(F)c3oc2c1)c1ccccc1F	< 1	> 50	> 141	> 100	0.71	5.45			86.7		Active
CN1CCN(c2ccc3c(=O)c4cccc(F)c4oc3c2)CC1	27 (≈ 86.4 µM)	> 50			16.1		0.08			18	
O=C(Nc1ccc2c(=O)c3cccc(F)c3oc2c1)c1ccccc1	< 1	> 50	> 53	> 100	1.89		0.22				
O=C(O)C1CCN(c2cc3oc4c(Cl)cccc4c(=O)c3cc2Cl)C1 (stereo not given)	< 1	> 50			1.12		1.59	1.95			
CN(C(=O)c1ccncc1)c1ccc2c(=O)c3cccc(F)c3oc2c1	< 1	> 50	> 5	> 100	18.3						
COc1ccc(Cl)c2oc3cc(N4CCC(C(=O)O)C4)ccc3c(=O)c12 (stereo not given)	> 415	> 50			> 50		0.68	0.47			
O=C(Nc1ccc2c(=O)c3cccc(F)c3oc2c1)c1ccncc1F	< 1	> 50	> 20.6	> 100	2.43						
O=C(Nc1ccc2c(=O)c3ccccc3oc2c1)c1ccccc1F	< 1	> 50	> 13	> 50	4.03						
CC1(C(=O)O)CCN(c2ccc3c(=O)c4cccc(Cl)c4oc3c2)C1 (stereo not given)		> 50			1.74		2.03	1.73			
Cc1cc2c(=O)c3cccc(Cl)c3oc2cc1N1CCC(C(=O)O)C1 (stereo not given)	< 465	> 50			0.75	3	1.34	1.5			
O=C(O)C1CCN(c2ccc3c(=O)c4c(Cl)ccc(Cl)c4oc3c2)C1 (stereo not given)	32 (≈ 84.6 µM)	> 50			2.36	1.16	1.72	1.44	34.8		
O=C(O)C1CCN(c2cc3oc4c(Cl)cccc4c(=O)c3cc2F)C1 (stereo not given)		> 50			1.17	7.74		1.39			
O=C1CCCN1c1ccc2c(=O)c3cccc(F)c3oc2c1	< 1	> 50			0.83		2.09			22	
COc1ccccc1C(=O)Nc1ccc2c(=O)c3cccc(F)c3oc2c1	< 1	> 50	> 1	> 100	84.9						
O=C(O)C1CCN(c2cc3oc4c(Cl)cccc4c(=O)c3cn2)C1 (stereo not given)	> 395	> 50			4.04		0.96	< -0.5			
